Residues, ends and D or L forms follow the SMILES beside them. *: point of attachment. Cbz = O=C(OCc1ccccc1)*; OtBu = CC(C)(C)O*
Experiments:
[1] = target: T1, Nav1.7 CTD (Homo sapiens, UniProt Q15858); test: SPR, compound binding to Nav1.7-CTD peptide
T1 construct: purchased Ontores Biotechnologies Co; host or cells: chemical synthesis

[2] = system: C57BL/6 mice; test: Thermal hypersensitivity induced by intrathecal AAV2-FGF13-GFP (Hargreaves); type: in vivo, mouse
Protocol: Next, the in vivo PW164 strategy was applied to test ZL192 activity in mice that received i.t. injection (L4-L6) of either AAV2-shCTRL or AAV2-shFGF13 viral particles (10 μL; Figure 6B).
Experiments were performed on 6- to 12-week-old male C57BL/6 mice (The Jackson Laboratory, Bar Harbor, ME) housed in the AAALAC-accredited facility at the University of Texas Medical Branch. Mice were group-housed with up to 5 mice per cage on a 12-to-12-hour light–dark cycle and had access to water and food ad libitum. All protocols were approved by the Institutional Animal Care and Use Committee (IACUC) at the University of Texas Medical Branch and in accordance with the National Institutes of Health (NIH) guidelines.
PW164 and ZL192 were dissolved in DMSO and saline in a ratio of 1:10. 0.1% capsaicin (10% ethanol, 10% Tween-20 in saline; Sigma-Aldrich). All the compounds were injected at the center of the hind paw. The control group received a DMSO-saline mixture. 0.1% capsaicin was injected at the center of the hind paw and then PW164 (0.07 mg/ml) or DMSO was intradermally administered at the site of capsaicin injection Capsaicin was prepared from 1% (wt/vol) capsaicin stock solution dissolved in 100% ethanol, and 0.1% of diluted stock was made using tween-80 and saline solution at a 1:1:8 ratio. Bupivacaine was prepared from a 1:2 dilution with sterile 0.9% saline and locally injected in the center of the paw at 7 mg/ml.
AAV2 viral particles packaged by the University of North Carolina Gene Therapy Core Facility (viral titer ranging […]
Before intrathecal injections in the lumbar region, mice were maintained in an anesthetizing box with 2% isoflurane to induce unconsciousness. […]
Mechanical sensitivity was assessed using von Frey filaments (VFF 0.1g and 1.0 g force) in mice that were either naïve or received intraplantar ([…].) injection of capsaicin. […]

[3] = target: human ether-a-go-go-related gene (hERG) (Homo sapiens, UniProt Q12809)
Chain of human ether-a-go-go-related gene (hERG) (Q12809 whole entry): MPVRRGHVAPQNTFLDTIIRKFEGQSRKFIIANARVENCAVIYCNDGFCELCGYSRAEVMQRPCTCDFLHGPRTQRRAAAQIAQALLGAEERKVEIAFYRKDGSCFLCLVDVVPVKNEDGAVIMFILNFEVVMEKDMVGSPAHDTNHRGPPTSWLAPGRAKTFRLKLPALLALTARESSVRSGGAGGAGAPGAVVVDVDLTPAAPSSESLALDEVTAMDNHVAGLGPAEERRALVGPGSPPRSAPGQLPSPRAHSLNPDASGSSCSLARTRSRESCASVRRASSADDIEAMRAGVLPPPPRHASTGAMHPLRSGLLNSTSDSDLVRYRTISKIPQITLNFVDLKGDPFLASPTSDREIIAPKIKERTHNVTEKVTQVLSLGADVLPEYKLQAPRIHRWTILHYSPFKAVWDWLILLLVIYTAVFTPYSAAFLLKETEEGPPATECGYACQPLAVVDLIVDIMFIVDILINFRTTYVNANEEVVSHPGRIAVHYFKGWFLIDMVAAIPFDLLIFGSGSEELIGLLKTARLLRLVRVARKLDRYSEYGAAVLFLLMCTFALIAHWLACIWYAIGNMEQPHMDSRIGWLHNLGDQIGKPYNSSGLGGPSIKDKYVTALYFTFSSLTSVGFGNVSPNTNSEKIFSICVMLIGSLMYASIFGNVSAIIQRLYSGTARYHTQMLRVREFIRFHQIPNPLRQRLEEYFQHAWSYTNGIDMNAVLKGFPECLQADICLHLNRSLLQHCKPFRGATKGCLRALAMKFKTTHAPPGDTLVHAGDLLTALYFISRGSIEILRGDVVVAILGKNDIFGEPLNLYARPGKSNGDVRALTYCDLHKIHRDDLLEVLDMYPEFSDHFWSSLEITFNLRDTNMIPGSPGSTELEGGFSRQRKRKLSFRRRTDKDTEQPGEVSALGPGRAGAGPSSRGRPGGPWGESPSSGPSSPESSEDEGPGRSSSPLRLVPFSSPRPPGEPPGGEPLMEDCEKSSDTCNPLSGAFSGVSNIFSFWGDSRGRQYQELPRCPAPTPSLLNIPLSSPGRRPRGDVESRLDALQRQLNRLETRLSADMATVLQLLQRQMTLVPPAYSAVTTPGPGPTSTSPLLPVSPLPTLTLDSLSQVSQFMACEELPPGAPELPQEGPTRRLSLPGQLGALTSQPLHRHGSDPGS

T1 sequence (Q15858 1888-1910 limits assumed): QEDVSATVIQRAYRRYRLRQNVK

Q: For `COC(=O)[C@@H](NC(=O)[C@H](CCC(=O)OC(C)(C)C)NC(=O)[C@H](CC(C)C)NC(=O)[C@@H]1CCCN1C(=O)OCc1ccccc1)C(C)C` [PW164] (Cbz-PLE(OtBu)V-OMe), which “KD, binding to Nav1.7 CTD” value [1] is on record?
A: Its value is “no interaction”.

Q: And the “duration of rescue in AAV2-FGF13-GFP mice” value ([2]; PW164 5 μL, 0.7 mg/mL)?
A: The value was “up to 2.5 hours”.

Q: And the “thermal hypersensitivity in AAV2-FGF13-GFP mice” value ([2]; bupivacaine 7 mg/mL (5 μL), Suppl Fig 15B)?
A: The value was “Complete recovery”.

Q: What about the “thermal hypersensitivity in AAV2-FGF13-GFP mice” value ([2]; day 68, PW164 5 μL, 0.7 mg/mL) of the same compound?
A: Its value is “partial rescue”.

Q: What about the IC50 [3] of the same compound?
A: The IC50 was over 30 µM.

Reference: PMC12259270, “Sensory neuron–expressed FGF13 controls nociceptive signaling in diabetic neuropathy models” (The Journal of Clinical Investigation, 2025)
